Results published in patent US20250082598A1, “Melafenoxate, 2-(1-adamantylamino)ethyl 2-(4-chlorophenoxy)acetate and derivatives thereof for treating circadian rhythm sleep disorders with neurodegenerative diseases such as Alzheimer's disease” (NLS Pharmaceutics AG, priority 2021, published 2025).
Entries after “also recorded” stand apart in the source; their conditions may differ.

Legend:
[1] = target: T1, NK2 (h) (Homo sapiens, UniProt P21452); assay: Radioligand binding, NK2 (h); settings: 10^−5 M; agonist radioligand
T1 construct: CEREP (Eurofins, France)
T1 sequence (P21452 1-398): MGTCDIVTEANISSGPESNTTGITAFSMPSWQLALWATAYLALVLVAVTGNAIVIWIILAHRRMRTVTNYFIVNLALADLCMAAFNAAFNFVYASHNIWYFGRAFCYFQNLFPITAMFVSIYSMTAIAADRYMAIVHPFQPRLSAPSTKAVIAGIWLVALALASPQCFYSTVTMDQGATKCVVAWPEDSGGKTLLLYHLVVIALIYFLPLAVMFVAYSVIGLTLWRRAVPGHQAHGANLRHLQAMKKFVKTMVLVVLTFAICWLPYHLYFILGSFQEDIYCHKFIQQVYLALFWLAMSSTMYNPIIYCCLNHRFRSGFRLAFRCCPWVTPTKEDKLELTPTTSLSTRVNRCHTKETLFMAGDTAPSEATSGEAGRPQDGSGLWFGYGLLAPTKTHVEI
Experimental: (§1) Melafenoxate was tested at 10^−5 M, calculated as a % inhibition of control specific binding of a radioactively labeled ligand specific for each target.
(§2) This binding profile panel was broadly defined with roughly an equal number of selective, central and peripheral therapeutically relevant targets, including native animal tissues, radioligands and specific enzymes involved in cell cycle regulation in accordance with Eurofins Standard Operating Procedure.
(§3) For radioligand binding experiments, the half maximal inhibitory concentration (IC50) and the half maximal effective concentration (EC50) values were determined (via computer software) by nonlinear regression analysis of the competition curves using Hill equation curve fitting. The inhibition constants (Ki) were calculated using the Cheng-Prusoff equation (Ki=IC50/(1+(L/KD)), where L is the concentration of radioligand in the assay, and KD is the affinity of the radioligand for the receptor.^49
(§4) The results are expressed as a % control specific binding ([measured specific binding/control specific binding]×100) and as a % inhibition of control specific binding (100−[(measured specific binding/control specific binding)×100]) obtained in the presence of the test compounds. […]

[2] = target: T2, DAT (h) (Homo sapiens, UniProt Q01959); assay: Radioligand binding, DAT (h); settings: 10^−5 M; antagonist radioligand
T2 construct: Eurofins
T2 sequence (Q01959 whole entry): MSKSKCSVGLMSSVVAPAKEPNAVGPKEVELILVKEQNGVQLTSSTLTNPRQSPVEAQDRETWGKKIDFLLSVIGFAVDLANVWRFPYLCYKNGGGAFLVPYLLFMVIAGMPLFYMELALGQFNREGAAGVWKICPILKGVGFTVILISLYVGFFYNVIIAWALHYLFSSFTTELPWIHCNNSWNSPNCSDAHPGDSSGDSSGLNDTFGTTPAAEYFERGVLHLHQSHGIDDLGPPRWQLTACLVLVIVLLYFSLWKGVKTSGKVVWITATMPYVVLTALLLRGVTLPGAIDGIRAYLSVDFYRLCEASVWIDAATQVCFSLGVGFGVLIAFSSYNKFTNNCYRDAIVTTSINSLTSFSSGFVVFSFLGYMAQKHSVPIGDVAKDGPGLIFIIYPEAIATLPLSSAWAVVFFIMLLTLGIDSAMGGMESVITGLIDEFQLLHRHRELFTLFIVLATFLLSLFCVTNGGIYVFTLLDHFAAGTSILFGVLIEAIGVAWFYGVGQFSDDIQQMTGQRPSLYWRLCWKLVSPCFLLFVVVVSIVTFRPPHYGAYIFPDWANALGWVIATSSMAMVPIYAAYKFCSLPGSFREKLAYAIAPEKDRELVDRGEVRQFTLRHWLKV
Experimental: as §1, §2, §3, §4

[3] = tested on: Cl— channel (GABA-gated); assay: Radioligand binding, Cl- channel (GABA-gated); settings: antagonist radioligand
Experimental: as §1, §2, §3, §4

[4] = tested on: C57BL/6J mice; assay: Scopolamine-induced amnesia in the novel object recognition (NOR) test; assay type: in vivo
Experimental: The scopolamine-induced amnesia in the novel object recognition (NOR) test in mice is a recognized in vivo model of Alzheimer Disease (AD).
The aim of this study is to examine whether Melafenoxate (NLS-8) improves amnesia induced by scopolamine in the NOR test.
Experiments were carried out on C57BL/6J mice.
In a first step of the experiment, NLS-8 was tested at 25, 50 and 100 mg/kg.
Animals were divided into 6 groups (N=4-10/group).
At T=0 min, they received the following treatments by intraperitoneal (i.p.) route: • Control group: vehicle. • Scopolamine group: scopolamine (1.2 mg/kg). • NLS-8 25 group: NLS-8 (25 mg/kg)+scopolamine (1.2 mg/kg). • NLS-8 50 group: NLS-8 (50 mg/kg)+scopolamine (1.2 mg/kg). • NLS-8 100 group: NLS-8 (100 mg/kg)+scopolamine (1.2 mg/kg). • NLS-8 150 group: NLS-8 (150 mg/kg)+scopolamine (1.2 mg/kg).
At T=30 min following treatment, animals were subjected to a sample trial. They were placed for a 12-min session in a circular experimental box in which two identical objects were presented (50% of animals: two brown cylindrical vials; 50% of animals: two black rectangular columns). At t=120 min following treatments, mice were subjected to a choice trial. They were placed again for a 12-min session in the same experimental box in which two different objects (a vial and a column) were presented: one of the objects (termed as familiar object) presented in the sample trial and a novel object. Exploration of the objects was recorded by an experimenter blind to treatment and unaware of which object was the novel one and which object was the familiar one.
DI(discrimination index)=100 ×(exploration time of the novel object−exploration time of the familiar object)/(exploration time of the novel object+exploration time of the familiar object). • Index of exploration: N+F=exploration time of the novel object+exploration time of the familiar object.
• Within group comparisons: DI vs. 0 (paired Student's t test). • Between group comparisons vs. the Control group and vs. the Scopo group: unpaired Student's t test.

[5] = NLS-8 25-150 mg/kg + scopolamine 1.2 mg/kg i.p.

O=C(COc1ccc(Cl)cc1)OCCNC12CC3CC(CC(C3)C1)C2 [Melafenoxate, 2-(1-adamantylamino)ethyl 2-(4-chlorophenoxy)acetate]
inhibition at 10 µM [1]: 33.5%
inhibition at 10 µM [2]: 20.9%
% Inhibition at 10^−5 M [3]: 13.5%
discrimination index vs. 0 (within group) ([4]; NLS-8 25 mg/kg + scopolamine 1.2 mg/kg i.p.): Non-significantly higher than 0
discrimination index vs. 0 (within group) ([4]; NLS-8 50 mg/kg + scopolamine 1.2 mg/kg i.p.): Significantly higher than 0
exploration time of objects (N+F) during the choice trial ([4]; NLS-8 50 mg/kg + scopolamine 1.2 mg/kg i.p., vs. Control and Scopo groups): higher than that of Control and Scopo groups
discrimination index vs. 0 (within group) ([4]; NLS-8 100 mg/kg + scopolamine 1.2 mg/kg i.p.): Non-significantly higher than 0
discrimination index vs. 0 (within group) ([4]; NLS-8 150 mg/kg + scopolamine 1.2 mg/kg i.p.): Non-significantly higher than 0
effect on amnesia induced by scopolamine (conclusion) ([4]; NLS-8 25-150 mg/kg): can improve amnesia induced by scopolamine
discrimination index, NLS-8 groups vs. Control group [4, 5]: Not significantly different
discrimination index, NLS-8 groups vs. Scopo group [4, 5]: Not significantly different; also recorded: not significant
exploration time of objects (N+F) during the choice trial ([4]; all other comparisons (other than NLS-8 50 group) vs. Control and vs. Scopo group): not significant
